Patent US8859557B2, “Substituted oxindole derivatives and their use as vasopressin receptor ligands” (Abbott GmbH & Co. KG, priority 2006, dated 2014)
pKi: −log10 of the molar value. Structures can show the parent of a compound that is named as a salt.

How the values were obtained:
[1] = target: T1, recombinant human oxytocin receptors (Homo sapiens, UniProt P30559); assay: Oxytocin receptor binding assay; conditions: selectivity for V1b over oxytocin receptor, quotient of Ki values
T1 construct: expressed in transfected cells; host or cells: HEK-293, transient expression; lysed and homogenized cells
T1 sequence (P30559 1-389): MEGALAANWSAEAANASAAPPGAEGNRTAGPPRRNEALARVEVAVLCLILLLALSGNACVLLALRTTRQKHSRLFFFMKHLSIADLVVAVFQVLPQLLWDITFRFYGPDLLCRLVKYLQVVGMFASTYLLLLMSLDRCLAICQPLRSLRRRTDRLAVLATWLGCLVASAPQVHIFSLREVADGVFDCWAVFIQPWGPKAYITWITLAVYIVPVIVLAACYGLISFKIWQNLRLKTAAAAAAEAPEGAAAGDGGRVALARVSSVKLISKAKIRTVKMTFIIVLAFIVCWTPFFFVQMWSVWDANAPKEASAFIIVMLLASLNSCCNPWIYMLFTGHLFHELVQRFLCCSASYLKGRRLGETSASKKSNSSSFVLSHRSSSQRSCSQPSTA
Procedure: Oxytocin Receptor Binding Assay
Confluent HEK-293 cells with transiently expressing recombinant human oxytocin receptors were centrifuged at 750×g and at room temperature for 5 minutes. The residue was taken up in ice-cold lysis buffer (50 mM Tris-HCl, 10% glycerol, pH 7.4 and Roche Complete Protease Inhibitor) and subjected to an osmotic shock at 4° C. for 20 minutes. The lyzed cells were then centrifuged at 750×g and at 4° C. for 20 minutes, the residue was taken up in incubation buffer, and aliquots of 10^7 cells/ml were prepared. The aliquots were frozen at −80° C. until used.
On the day of the experiment, the cells were thawed, diluted with incubation buffer and homogenized using a Multipette Combitip (Eppendorf, Hamburg). […] The nonspecific binding was determined with 10^−6 M oxytocin (Bachem AG, H2510). Determinations in triplicate were set up. Bound and free radioligand were separated by filtration under vacuum with Whatman GF/B glass fibre filters using a Skatron cell harvester 7000. The bound radioactivity was determined by liquid scintillation measurement in a Tricarb beta counter, model 2000 or 2200CA (Packard).

[2] = target: human vasopressin V1a receptor (Homo sapiens, UniProt P37288); assay: Vasopressin V1a receptor binding assay; conditions: selectivity for V1b over V1a, quotient of Ki values
Sequence of human vasopressin V1a receptor (P37288 whole entry): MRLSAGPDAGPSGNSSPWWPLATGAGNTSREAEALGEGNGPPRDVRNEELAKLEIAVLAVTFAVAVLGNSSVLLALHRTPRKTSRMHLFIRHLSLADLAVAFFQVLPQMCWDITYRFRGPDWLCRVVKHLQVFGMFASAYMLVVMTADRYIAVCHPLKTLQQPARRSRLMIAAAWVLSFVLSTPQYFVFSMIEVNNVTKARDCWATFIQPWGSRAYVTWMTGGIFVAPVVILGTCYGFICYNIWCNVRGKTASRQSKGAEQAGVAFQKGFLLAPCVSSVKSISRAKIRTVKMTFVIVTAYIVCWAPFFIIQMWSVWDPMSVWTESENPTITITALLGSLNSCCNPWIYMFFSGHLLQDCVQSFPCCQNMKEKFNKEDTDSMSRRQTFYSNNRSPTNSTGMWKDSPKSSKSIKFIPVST

[3] = target: T2, human vasopressin V1b receptor (Homo sapiens, UniProt P47901); assay: Vasopressin V1b receptor binding assay; conditions: displacement of 3H-AVP, membranes of CHO-K1 cells with human V1b receptor
T2 construct: expressed in transfected cells; host or cells: CHO-K1 (cell line hV1b-3H2_CHO), membrane preparation
T2 sequence (P47901 1-424): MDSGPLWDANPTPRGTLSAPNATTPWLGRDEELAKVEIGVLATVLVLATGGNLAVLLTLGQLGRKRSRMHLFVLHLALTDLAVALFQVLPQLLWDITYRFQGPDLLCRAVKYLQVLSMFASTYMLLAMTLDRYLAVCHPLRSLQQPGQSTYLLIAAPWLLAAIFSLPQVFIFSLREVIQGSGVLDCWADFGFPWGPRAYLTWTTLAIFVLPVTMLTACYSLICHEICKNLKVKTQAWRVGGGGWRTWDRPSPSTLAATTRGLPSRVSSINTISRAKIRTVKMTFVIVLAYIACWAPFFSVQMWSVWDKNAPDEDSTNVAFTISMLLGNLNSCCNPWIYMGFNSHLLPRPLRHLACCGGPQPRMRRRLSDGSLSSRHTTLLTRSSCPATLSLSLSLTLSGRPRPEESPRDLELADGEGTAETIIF
Procedure: Methods for Determining the Biological Activity Vasopressin V1b Receptor Binding Assay: Substances:
This series of DMSO predilutions was diluted 1:10 with assay buffer. The substance concentration was again diluted 1:5 in the assay mixture (2% DMSO in the mixture).
All determinations were carried out as triplicate determinations.

[4] = Determination of the microsomal half-life / microsomal clearance (human); type: in vitro ADME; conditions: pH 7.4; human liver microsomes, 0.5 μM test substance, 0.25 mg microsomal protein/ml; read-out: Human Mikrosomal Clearance
Procedure: The metabolic stability of a compound can be determined, for example, by incubating a solution of this compound with liver microsomes from particular species (for example rat, dog or human) and determining the half-life of the compound under these conditions (RS Obach, Curr Opin Drug Discov Devel. 2001, 4, 36-44). It is possible to conclude from an observed larger half-life that the metabolic stability of the compound is improved. The stability in the presence of human liver microsomes is of particular interest since it makes it possible to predict the metabolic degradation of the compound in the human liver. Compounds with increased metabolic stability (determined in the liver microsome test) are therefore probably also degraded more slowly in the liver. The slower metabolic degradation in the liver can lead to higher and/or longer-lasting concentrations (effective levels) of the compound in the body, so that the elimination half-life of the compounds according to the invention is increased. Increased and/or longer-lasting effective levels may lead to a better efficacy of the compound in the treatment or prophylaxis of various vasopressin-dependent diseases. An improved metabolic stability may additionally lead to an increased bioavailability after oral administration, because the compound is subjected, after being absorbed in the intestine, to less metabolic degradation in the liver (so-called first pass effect). An increased oral bioavailability may, because the concentration (effective level) of the compound is increased, lead to a better efficacy of the compound after oral administration.
Determination of the Microsomal Half-Life:
The metabolic stability of the compounds of the invention was determined in the following assay.
The test substances are incubated in a concentration of 0.5 μM as follows:
0.5 μM test substance is preincubated together with liver microsomes of various species (rat, human or other species) (0.25 mg of microsomal protein/ml) in 0.05M potassium phosphate buffer pH 7.4 in microtitre plates at 37° C. for 5 min. The reaction is started by adding NADPH (1 mg/ml). 50 μl aliquots are taken after 0, 5, 10, 15, 20 and 30 min, and the reaction is stopped immediately with the same volume of acetonitrile and cooled down. The samples are frozen until analyzed. Using MSMS, the remaining concentration of undegraded test substance is determined. From the […] of the test substance signal/time unit curve, the half-life (T½) is determined, where the half-life of the test substance can be calculated, assuming first order kinetics, from the decrease in the concentration of the compound with time. The microsomal clearance (mCl) is calculated as mCl=In2/T½/(content of microsomal protein in mg/ml)×1000 [ml/min/mg] (modified according to the literature references: Di, The Society for Biomoleculaur Screening, 2003, 453-462; Obach, DMD, 1999 vol 27. N 11, 1350-1359).

| Ki(h-OT)/Ki(h-V1b) [1] | Ki(h-V1a)/Ki(h-V1b) [2] | pKi [3] | microsomal CLint at 0.5 μM [4] | Structure (SMILES) |
| --- | --- | --- | --- | --- |
| +++ (>50) | +++ (>100) | 7.30 to 8.00 |  | CCOc1ncccc1C1(NC(=O)N2CCN(C3CCN(C)CC3)CC2)C(=O)N(S(=O)(=O)c2ccccc2OC)c2ccc(C#N)cc21 (racemic) [Example 2, N-{5-Cyano-3-(2-ethoxypyridin-3-yl)-1-[(2-methoxyphenyl)sulphonyl]-2-oxo-2,3-dihydro-1H-indol-3-yl}-4-(1-methylpiperidin-4-yl)piperazine-1-carboxamide] |
| +++ (>50) | +++ (>100) | 7.30 to 8.00 |  | CCOc1ccccc1S(=O)(=O)N1C(=O)C(NC(=O)N2CCN(C3CCN(C)CC3)CC2)(c2cccnc2OCC)c2cc(C#N)ccc21.O=C(O)C(F)(F)F (racemic) [Example 3, N-[5-Cyano-1-[(2-ethoxyphenyl)sulphonyl]-3-(2-ethoxypyridin-3-yl)-2-oxo-2,3-dihydro-1H-indol-3-yl]-4-(1-methylpiperidin-4-yl)piperazine-1-carboxamide trifluoroacetate] |
|  |  |  | < 60 µL/min/mg | CCOc1ncccc1C1(NC(=O)N2CCN(C3CCN(C)CC3)CC2)C(=O)N(S(=O)(=O)c2ccc(OC)cc2)c2ccc(C#N)cc21 (racemic) [Example 5, N-[5-Cyano-3-(2-ethoxypyridin-3-yl)-1-[(4-methoxyphenyl)sulphonyl]-2-oxo-2,3-dihydro-1H-indol-3-yl]-4-(1-methylpiperidin-4-yl)piperazine-1-carboxamide] |
| +++ (>50) | + (15-50) | 7.30 to 8.00 |  | CCOc1ncccc1C1(NC(=O)N2CCC(N3CCN(C)CC3)CC2)C(=O)N(S(=O)(=O)c2ccccc2OC)c2ccc(C#N)cc21 (racemic) [Example 32, N-[5-Cyano-3-(2-ethoxypyridin-3-yl)-1-[(2-methoxyphenyl)sulphonyl]-2-oxo-2,3-dihydro-1H-indol-3-yl]-4-(4-methylpiperazin-1-yl)piperidine-1-carboxamide] |
|  |  |  | < 60 µL/min/mg | CCOc1ncccc1C1(NC(=O)N2CCC(N3CCN(C)CC3)CC2)C(=O)N(S(=O)(=O)c2ccccc2)c2ccc(C#N)cc21 (racemic) [Example 34, N-[5-Cyano-3-(2-ethoxypyridin-3-yl)-2-oxo-1-(phenylsulphonyl)-2,3-dihydro-1H-indol-3-yl]-4-(4-methylpiperazin-1-yl)piperidine-1-carboxamide] |
| +++ (>50) | +++ (>100) | > 8.00 |  | CCCN1CCN(C2CCN(C(=O)NC3(c4cccnc4OCC)C(=O)N(S(=O)(=O)c4ccc(OC)cc4OC)c4ccc(C#N)cc43)CC2)CC1 (racemic) [Example 43, N-[5-Cyano-1-[(2,4-dimethoxyphenyl)sulphonyl]-3-(2-ethoxypyridin-3-yl)-2-oxo-2,3-dihydro-1H-indol-3-yl]-4-(4-propylpiperazin-1-yl)piperidine-1-carboxamide] |
| +++ (>50) | +++ (>100) | > 8.00 |  | CCOc1ncccc1C1(NC(=O)N2CCC(C3CCN(C)CC3)CC2)C(=O)N(S(=O)(=O)c2ccc(OC)cc2OC)c2ccc(C#N)cc21 (racemic) [Example 61, N-[5-Cyano-1-[(2,4-dimethoxyphenyl)sulphonyl]-3-(2-ethoxypyridin-3-yl)-2-oxo-2,3-dihydro-1H-indol-3-yl]-1′-methyl-4,4′-bipiperidine-1-carboxamide] |
| +++ (>50) | +++ (>100) | > 8.00 |  | CCOc1ncccc1C1(NC(=O)N2CCC(C3CCN(CC)CC3)CC2)C(=O)N(S(=O)(=O)c2ccc(OC)cc2OC)c2ccc(C#N)cc21.O=C(O)C(F)(F)F (racemic) [Example 67, N-[5-Cyano-1-[(2,4-dimethoxyphenyl)sulphonyl]-3-(2-ethoxypyridin-3-yl)-2-oxo-2,3-dihydro-1H-indol-3-yl]-1′-ethyl-4,4′-bipiperidine-1-carboxamide trifluoroacetate] |
| +++ (>50) | +++ (>100) |  |  | CCOc1ncccc1C1(NC(=O)N2CCC(C3CCN(C)CC3)CC2)C(=O)N(S(=O)(=O)c2ccc(OC)cc2OC)c2ccc(C#N)cc21.O=C(O)C(F)(F)F (single isomer, unassigned) [Example 61B, (−)-N-[5-Cyano-1-[(2,4-dimethoxyphenyl)sulphonyl)-3-(2-ethoxypyridin-3-yl)-2-oxo-2,3-dihydro-1H-indol-3-yl]-1′-methyl-4,4′-bipiperidine-1-carboxamide trifluoroacetate] |
|  |  | > 8.00 | < 60 µL/min/mg | CCOc1ncccc1[C@]1(NC(=O)N2CCC(C3CCN(C)CC3)CC2)C(=O)N(S(=O)(=O)c2ccc(OC)cc2OC)c2ccc(C#N)cc21 (single isomer, unassigned) [Example 61B, (−)-N-[5-Cyano-1-[(2,4-dimethoxyphenyl)sulphonyl)-3-(2-ethoxypyridin-3-yl)-2-oxo-2,3-dihydro-1H-indol-3-yl]-1′-methyl-4,4′-bipiperidine-1-carboxamide trifluoroacetate] |
| +++ (>50) | +++ (>100) | > 8.00 |  | CCOc1ncccc1C1(NC(=O)N2CCC(C3CCN(CC)CC3)CC2)C(=O)N(S(=O)(=O)c2ccc(OC)cc2OC)c2ccc(C#N)cc21.O=C(O)C(F)(F)F (single isomer, unassigned) [Example 67B, (−)-N-[5-Cyano-1-[(2,4-dimethoxyphenyl)sulphonyl]-3-(2-ethoxypyridin-3-yl)-2-oxo-2,3-dihydro-1H-indol-3-yl]-1′-ethyl-4,4′-bipiperidine-1-carboxamide trifluoroacetate] |
